Results: patent US9744148B2, “Kallikrein 7 inhibitors” (SIXERA PHARMA AB, priority 2014, dated 2017)

Biological target: Active human KLK7 (SCCE) (Homo sapiens (Human), UniProt P49862)
Assay: KLK7 Inhibitor Test
Type: biochemical
Conditions: substrate MeO-Suc-Arg-Pro-Tyr-pNA, pH 7.2, 37° C., absorbance at 405 nm
Method: KLK7 Inhibitor Test Substrate:(MeO-Suc-[…]), acetate salt, Peptide international, lot #906841, previously named S-2586 Enzyme: […] Buffer: 10 mM NaPhospate, 0.5 M NaCl, pH 7.2 […] 10 μl of substance in DMSO was added to wells giving final concentrations of 20 μ[…], and 0.15625 μM. 40 μl of active KLK7 (SCCE) (diluted to 12.5 μg/ml in activity buffer) was added all wells except blank to which activity buffer was added. […] The mean value V of each sample was calculated (n=2 for the substances and n=4 for the control). From the values of V the % of total activity was calculated as (Vinhibitor/Vcontrol (no inhibitor))×100. Plotting and calculation was then done in originPro. % of total activity (y) was plotted vs. log [inhibitor] (log x) and a function of dose response y=A1+(A2-A1)/(1+10^((LOG(x0)-x)*p)) where A1=Bottom platue, A2=Top platue, x0=EC50 and p=Hill slope was fitted to the curve. […] The IC50 values were used to identify KLK7 inhibitors according to the invention.

Active human KLK7 (SCCE), sequence (P49862 30-253): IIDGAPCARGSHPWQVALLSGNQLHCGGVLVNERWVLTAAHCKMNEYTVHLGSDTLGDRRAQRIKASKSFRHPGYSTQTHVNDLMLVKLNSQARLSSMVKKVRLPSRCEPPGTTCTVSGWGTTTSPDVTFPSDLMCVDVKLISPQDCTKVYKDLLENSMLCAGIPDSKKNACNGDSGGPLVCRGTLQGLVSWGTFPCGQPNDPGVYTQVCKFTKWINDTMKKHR

Q: For `Cc1cc(NC(=O)C(C)OC(=O)Cc2ccc(Cl)cc2)no1` (stereo not shown) [Compound 1, [1-methyl-2-[(5-methylisoxazol-3-yl)amino]-2-oxo-ethyl] 2-(4-chlorophenyl)acetate], which IC50 is on record?
A: 39 nM

Q: With `CC(OC(=O)Cc1ccc(Cl)cc1)C(=O)Nc1ccc(F)cc1` (stereo not shown) [Compound 2] as the molecule, how does the IC50 read?
A: 70 nM

Q: For `CCC(OC(=O)Cc1ccc(Cl)cc1)C(=O)Nc1cc(C)on1` (stereo not shown) [Compound 3, 1-[(5-methylisoxazol-3-yl)carbamoyl]propyl 2-(4-chlorophenyl)acetate], which IC50 is on record?
A: 80 nM

Q: For `COc1ccc(NC(=O)C(C)OC(=O)Cc2ccc(Cl)cc2)cc1` (stereo not shown) [Compound 4, [2-(4-methoxyanilino)-1-methyl-2-oxo-ethyl] 2-(4-chlorophenyl)acetate], which IC50 is on record?
A: 80 nM

Q: `CC(OC(=O)Cc1ccc(Cl)cc1)C(=O)Nc1ccccc1` (stereo not shown) [Compound 5] was tested. Which IC50 did it give?
A: 90 nM

Q: With `CCC(OC(=O)Cc1ccc(Cl)cc1)C(=O)Nc1ccc(OC)cc1` (stereo not shown) [Compound 6, 1-[(4-methoxyphenyl)carbamoyl]propyl 2-(4-chlorophenyl)acetate] as the molecule, how does the IC50 read?
A: 120 nM

Q: How did the IC50 turn out when `COc1ccc(CC(=O)OC(C)C(=O)Nc2cc(C)on2)cc1` (stereo not shown) [Compound 7, [1-methyl-2-[(5-methylisoxazol-3-yl)amino]-2-oxo-ethyl] 2-(4-methoxyphenyl) acetate] was run?
A: 130 nM

Q: For `CCC(OC(=O)Cc1ccc(Cl)cc1)C(=O)Nc1ccc(F)cc1` (stereo not shown) [Compound 8, 1-[(4-fluorophenyl)carbamoyl]propyl 2-(4-chlorophenyl)acetate], which IC50 is on record?
A: 140 nM

Q: Which IC50 does the source give for `CCC(OC(=O)Cc1ccc(Cl)cc1)C(=O)Nc1ccccc1` (stereo not shown) [Compound 9, 1-(phenylcarbamoyl)propyl 2-(4-chlorophenyl)acetate] here?
A: 150 nM

Q: With `CCC(OC(=O)CCC1CCCC1)C(=O)Nc1ccc(OC)cc1` (stereo not shown) [Compound 11, 1-[(4-methoxyphenyl)carbamoyl]propyl 3-cyclopentylpropanoate] as the molecule, how does the IC50 read?
A: 150 nM

Q: How did the IC50 turn out when `CCC(OC(=O)Cc1ccc(OC)cc1)C(=O)Nc1cc(C)on1` (stereo not shown) [Compound 12, 1-[(5-methylisoxazol-3-yl)carbamoyl]propyl 2-(4-methoxyphenyl) acetate] was run?
A: 150 nM

Q: With `COc1ccc(NC(=O)C(OC(=O)Cc2ccc(Cl)cc2)c2ccccc2)cc1` (stereo not shown) [Compound 13, [2-(4-methoxyanilino)-2-oxo-1-phenyl-ethyl] 2-(4-chlorophenyl)acetate] as the molecule, how does the IC50 read?
A: 170 nM

Q: With `Cc1cc(NC(=O)C(C)OC(=O)CCC2CCCC2)no1` (stereo not shown) [Compound 14, [1-methyl-2-[(5-methylisoxazol-3-yl)amino]-2-oxo-ethyl] 3-cyclopentylpropanoate] as the molecule, how does the IC50 read?
A: 180 nM

Q: With `COc1ccc(CC(=O)OC(C)C(=O)Nc2ccc(OC)cc2)cc1` (stereo not shown) [Compound 15, [2-(4-methoxyanilino)-1-methyl-2-oxo-ethyl] 2-(4-methoxyphenyl)acetate] as the molecule, how does the IC50 read?
A: 180 nM

Q: For `CCC(OC(=O)CCC1CCCC1)C(=O)Nc1cc(C)on1` (stereo not shown) [Compound 16, 1-[(5-methylisoxazol-3-yl)carbamoyl]propyl 3-cyclopentylpropanoate], which IC50 is on record?
A: 190 nM

Q: `Cc1cc(NC(=O)C(OC(=O)Cc2ccc(Cl)cc2)c2ccccc2)no1` (stereo not shown) [Compound 17, [2-[(5-methylisoxazol-3-yl)amino]-2-oxo-1-phenyl-ethyl] 2-(4-chlorophenyl)acetate] was tested. Which IC50 did it give?
A: 190 nM

Q: For `CCCC(OC(=O)C(c1ccccc1)c1ccccc1)C(=O)Nc1cc(C)on1` (stereo not shown) [Compound 18], which IC50 is on record?
A: 220 nM

Q: Which IC50 does the source give for `COc1ccc(NC(=O)C(OC(=O)CCC2CCCC2)c2ccccc2)cc1` (stereo not shown) [Compound 19, [2-(4-methoxyanilino)-2-oxo-1-phenyl-ethyl] 3-cyclopentylpropanoate] here?
A: 230 nM

Q: `Cc1cc(NC(=O)C(OC(=O)CCC2CCCC2)c2ccccc2)no1` (stereo not shown) [Compound 20, [2-[(5-methylisoxazol-3-yl)amino]-2-oxo-1-phenyl-ethyl] 3-cyclopentylpropanoate] was tested. Which IC50 did it give?
A: 230 nM

Q: Which IC50 does the source give for `COc1ccc(CC(=O)OC(C)C(=O)Nc2ccccc2)cc1` (stereo not shown) [Compound 21] here?
A: 260 nM

Q: For `CC(OC(=O)CCC1CCCC1)C(=O)Nc1ccc(F)cc1` (stereo not shown) [Compound 22], which IC50 is on record?
A: 260 nM

Q: For `CCC(OC(=O)Cc1ccc(OC)cc1)C(=O)Nc1cc(C)on1` (stereo not shown) [Compound 23, 1-[(5-methylisoxazol-3-yl)carbamoyl]propyl 2-(4-methoxyphenyl)acetate], which IC50 is on record?
A: 270 nM

Q: How did the IC50 turn out when `CCC(OC(=O)Cc1ccc(OC)cc1)C(=O)Nc1ccc(OC)cc1` (stereo not shown) [Compound 24, 1-[(4-methoxyphenyl)carbamoyl]propyl 2-(4-methoxyphenyl)acetate] was run?
A: 280 nM

Q: How did the IC50 turn out when `CCC(OC(=O)CCC1CCCC1)C(=O)Nc1ccc(F)cc1` (stereo not shown) [Compound 25, 1-[(4-fluorophenyl)carbamoyl]propyl 3-cyclopentylpropanoate] was run?
A: 310 nM

Q: With `CCC(OC(=O)Cc1ccc2c(c1)OCO2)C(=O)Nc1cc(C)on1` (stereo not shown) [Compound 26, 1-[(5-methylisoxazol-3-yl)carbamoyl]propyl 2-(1,3-benzodioxol-5-yl)acetate] as the molecule, how does the IC50 read?
A: 320 nM

Q: For `CCCCC(OC(=O)C(c1ccccc1)c1ccccc1)C(=O)Nc1cc(C)on1` (stereo not shown) [Compound 27], which IC50 is on record?
A: 330 nM

Q: `CC[C@H](OC(=O)C(c1ccccc1)c1ccccc1)C(=O)Nc1cc(C)on1` [Compound 28] was tested. Which IC50 did it give?
A: 340 nM

Q: Which IC50 does the source give for `O=C(Cc1ccc(Cl)cc1)OC(C(=O)Nc1ccc(F)cc1)c1ccccc1` (stereo not shown) [Compound 29] here?
A: 350 nM

Q: For `CCC(OC(=O)Cc1ccc(OC)cc1)C(=O)Nc1ccc(F)cc1` (stereo not shown) [Compound 30, 1-[(4-fluorophenyl)carbamoyl]propyl 2-(4-methoxyphenyl)acetate], which IC50 is on record?
A: 360 nM

Q: `CC(OC(=O)CCC1CCCC1)C(=O)Nc1ccccc1` (stereo not shown) [Compound 31, (2-anilino-1-methyl-2-oxo-ethyl) 3-cyclopentylpropanoate] was tested. Which IC50 did it give?
A: 370 nM

Q: Which IC50 does the source give for `O=C(Cc1ccc(Cl)cc1)OC(C(=O)Nc1ccccc1)c1ccccc1` (stereo not shown) [Compound 32, (2-anilino-2-oxo-1-phenyl-ethyl) 2-(4-chlorophenyl)acetate] here?
A: 380 nM

Q: With `CCC(OC(=O)C(c1ccccc1)c1ccccc1)C(=O)Nc1cc(C)on1` (stereo not shown) [Compound 33] as the molecule, how does the IC50 read?
A: 390 nM

Q: `CCC(OC(=O)Cc1ccc(OC)cc1)C(=O)Nc1ccccc1` (stereo not shown) [Compound 34, 1-(phenylcarbamoyl)propyl 2-(4-methoxyphenyl)acetate] was tested. Which IC50 did it give?
A: 390 nM

Q: With `COc1ccc(CC(=O)OC(C(=O)Nc2ccc(OC)cc2)c2ccccc2)cc1` (stereo not shown) [Compound 35, [2-(4-methoxyanilino)-2-oxo-1-phenyl-ethyl] 2-(4-methoxyphenyl)acetate] as the molecule, how does the IC50 read?
A: 410 nM

Q: For `COc1ccc(CC(=O)OC(C(=O)Nc2cc(C)on2)c2ccccc2)cc1` (stereo not shown) [Compound 36, [2-[(5-methylisoxazol-3-yl)amino]-2-oxo-1-phenyl-ethyl] 2-(4-methoxyphenyl)acetate], which IC50 is on record?
A: 430 nM

Q: `O=C(CCC1CCCC1)OC(C(=O)NCc1ccccc1)c1ccccc1` (stereo not shown) [Compound 37, [2-(benzylamino)-2-oxo-1-phenyl-ethyl] 3-cyclopentylpropanoate] was tested. Which IC50 did it give?
A: 460 nM

Q: How did the IC50 turn out when `COCCC(OC(=O)C(c1ccccc1)c1ccccc1)C(=O)Nc1cc(C)on1` (stereo not shown) [Compound 38] was run?
A: 470 nM

Q: How did the IC50 turn out when `CCC(OC(=O)Cc1ccc(Cl)c(Cl)c1)C(=O)Nc1cc(C)on1` (stereo not shown) [Compound 39, 1-[(5-methylisoxazol-3-yl)carbamoyl]propyl 2-(3,4-dichlorophenyl)acetate] was run?
A: 480 nM

Q: `COc1ccc(NC(=O)COC(=O)Cc2ccc(Cl)cc2)cc1` [Compound 40] was tested. Which IC50 did it give?
A: 550 nM

Q: `CCC(OC(=O)Cc1ccc(OC)c(OC)c1)C(=O)Nc1cc(C)on1` (stereo not shown) [Compound 41, 1-[(5-methylisoxazol-3-yl)carbamoyl]propyl 2-(3,4-dimethoxyphenyl)acetate] was tested. Which IC50 did it give?
A: 580 nM

Q: `COc1ccc(CC(=O)OC(C)C(=O)Nc2ccc(F)cc2)cc1` (stereo not shown) [Compound 42] was tested. Which IC50 did it give?
A: 590 nM

Q: With `CCC(OC(=O)C(c1ccccc1)c1ccccc1)C(=O)Nc1ccc(OC)cc1` (stereo not shown) [Compound 43, 1-[(4-methoxyphenyl)carbamoyl]propyl 2,2-diphenylacetate] as the molecule, how does the IC50 read?
A: 630 nM

Q: `CCC(OC(=O)C(c1ccccc1)c1ccccc1)C(=O)Nc1ccc(F)cc1` (stereo not shown) [Compound 44, 1-[(4-fluorophenyl)carbamoyl]propyl 2,2-diphenylacetate] was tested. Which IC50 did it give?
A: 640 nM

Q: For `CCC(OC(=O)C(NC(=O)c1ccccc1)c1ccccc1)C(=O)Nc1cc(C)on1` (stereo not shown) [Compound 45], which IC50 is on record?
A: 660 nM

Q: For `COc1ccc(NC(=O)COC(=O)CCC2CCCC2)cc1` [Compound 46], which IC50 is on record?
A: 690 nM

Q: Which IC50 does the source give for `Cc1cc(NC(=O)C(C)OC(=O)C(c2ccccc2)c2ccccc2)no1` (stereo not shown) [Compound 47, [1-methyl-2-[(5-methylisoxazol-3-yl)amino]-2-oxo-ethyl] 2,2-diphenylacetate] here?
A: 740 nM

Q: For `CCC(OC(=O)C(c1ccccc1)c1ccccc1)C(=O)Nc1ccccc1` (stereo not shown) [Compound 48, 1-(phenylcarbamoyl)propyl 2,2-diphenylacetate], which IC50 is on record?
A: 760 nM

Q: For `Cc1cc(NC(=O)C(OC(=O)C(NC(=O)c2ccccc2)c2ccccc2)c2ccccc2)no1` (stereo not shown) [Compound 49, [2-[(5-methylisoxazol-3-yl)amino]-2-oxo-1-phenyl-ethyl] 2-benzamido-2-phenyl-acetate], which IC50 is on record?
A: 780 nM

Q: Which IC50 does the source give for `O=C(COC(=O)Cc1ccc(Cl)cc1)Nc1ccc(F)cc1` [Compound 50] here?
A: 790 nM

Q: With `O=C(COC(=O)CCC1CCCC1)Nc1ccc(F)cc1` [Compound 51] as the molecule, how does the IC50 read?
A: 830 nM

Q: `Cc1cc(NC(=O)C(C)OC(=O)C(NC(=O)c2ccccc2)c2ccccc2)no1` (stereo not shown) [Compound 52, [1-methyl-2-[(5-methylisoxazol-3-yl)amino]-2-oxo-ethyl] 2-benzamido-2-phenyl-acetate] was tested. Which IC50 did it give?
A: 950 nM

Q: For `CC(OC(=O)C(c1ccccc1)c1ccccc1)C(=O)Nc1ccccc1` (stereo not shown) [Compound 53], which IC50 is on record?
A: 1100 nM
